The record followed here is patent EP2875811A1, “Use of dobesilate for treating ocular haemorrhages” (priority 2013, dated 2015).

One data set has as its system submacular haemorrhage. The format is in vivo, human. The method, then:
A person with a history of wet age-related macular degeneration (AMD) in both eyes developed a sudden vision decrease in the right eye. The best corrected visual acuity (BCVA) on presentation was of 0.05. […] Haemorrhage seems also result in the RPE detachment at some points (Fig 1D, asterisk). Intravitreal dobesilate was administered in the right eye, using a standard protocol. After approval of our Institution Ethical Committee, the patient signed an informed consent form, which included a comprehensive description of dobesilate and the proposed procedure. Patient received an intravitreal solution of dobesilate (150µl) under sterile conditions in their right eye, following the International Guidelines for intravitreal injections (Aiello LP et al. Retina. 2004; 24 (5 Suppl):S3-S19). Dobesilate was administered as a 12.5% solution of diethylammonium 2.5-dihydroxybenzenesulfonate (etamsylate; dicynone® Sanofi-Aventis. Paris. France).
(§1) • Figure 1 Sequence of fundus photographs (A-D) and spectral-domain optical coherence tomography (SD-OCT) scans (D-F) of a patient with a moderate-sized submacular haemorrhage at baseline (A,D), and one (B,E) and two months (C,F) after a single intravitreal injection of dobesilate. Asterisk in D indicates retinal pigment epithelium (RPE) detachment. • Figure 2 Efficacy of intravitreal dobesilate injection to clear vitreous haemorrhage in a diabetic patient. A and C photographs were taken at presentation, and B and D after 3 days of treatment. […] Note in B the abnormal appearance of the pupil due to luxation of the lens. Arrow indicates paracentesis site.

The test system of another data set is vitreous haemorrhage. Type of data set: in vivo, human. The method, then:
A 68 old-year type 2 diabetic man presented with intense vision loss in their right eye. […] Intraocular pressure was 50mmHg that was reduced to 14mmHg after a paracentesis procedure. After approval of the Institutional Ethics Committee, the patient signed an informed consent form, which included a comprehensive description of dobesilate and the proposed procedure. Patient received an intravitreal solution of dobesilate (150 µl) under sterile conditions, following the International Guidelines for intravitreal injections (Aiello LP et al. Retina. 2004; 24 (5 Suppl):S3-S19) in their right eye. Dobesilate was administered as a 12.5% solution of diethylammonium 2.5-dihydroxybenzenesulfonate (etamsylate, dicynone® Sanofi-Aventis. Paris. France).
as §1, with “Arrow indicates paracentesis site.” left out

Setting [1] is: person, right eye, intravitreal 150µl of 12.5% solution, along two months follow-up.

Turning to `O=S(=O)(O)c1cc(O)ccc1O` [dobesilate, diethylammonium 2.5-dihydroxybenzenesulfonate], the ocular side effects entry with submacular haemorrhage (human, in vivo) is “No ocular side effects were observed”. Further, in the data set with submacular haemorrhage (setting [1]), the “SD-OCT scans: retinal architecture / RPE detachment” value is on record as “progressive normalization of the retinal architecture with disappearance of RPE detachment” and the “haemorrhage signs (fundus)” value is “gradually disappeared”. Moreover, in the data set on submacular haemorrhage (person, right eye, intravitreal 150µl of 12.5% solution, two months follow-up, BCVA on presentation 0.05), the “final BCVA (best corrected visual acuity)” value is recorded as 0.50. The Intraocular pressure result in the data set with vitreous haemorrhage (after treatment, pressure had been reduced from 50mmHg to 14mmHg by paracentesis before injection) is given as “maintained at normal level”. The ocular side effects result with vitreous haemorrhage (human, in vivo) is listed as “No ocular side effects were observed”.
